Our source for the IC50 values is patent US10894784B2, “Heteroarylbenzimidazole compounds” (BAYER PHARMA AKTIENGESELLSCHAFT, priority 2015, dated 2021).

For this test, the target named is TBK1 (Homo sapiens (Human), UniProt Q9UHD2). The test is described as follows: TBK1 low ATP kinase assay (in vitro assay 1). The following applies: in vitro assay 1, read-out: TBK1 low ATP kinase assay IC50. Format: biochemical.
TBK1, sequence (Q9UHD2 whole entry): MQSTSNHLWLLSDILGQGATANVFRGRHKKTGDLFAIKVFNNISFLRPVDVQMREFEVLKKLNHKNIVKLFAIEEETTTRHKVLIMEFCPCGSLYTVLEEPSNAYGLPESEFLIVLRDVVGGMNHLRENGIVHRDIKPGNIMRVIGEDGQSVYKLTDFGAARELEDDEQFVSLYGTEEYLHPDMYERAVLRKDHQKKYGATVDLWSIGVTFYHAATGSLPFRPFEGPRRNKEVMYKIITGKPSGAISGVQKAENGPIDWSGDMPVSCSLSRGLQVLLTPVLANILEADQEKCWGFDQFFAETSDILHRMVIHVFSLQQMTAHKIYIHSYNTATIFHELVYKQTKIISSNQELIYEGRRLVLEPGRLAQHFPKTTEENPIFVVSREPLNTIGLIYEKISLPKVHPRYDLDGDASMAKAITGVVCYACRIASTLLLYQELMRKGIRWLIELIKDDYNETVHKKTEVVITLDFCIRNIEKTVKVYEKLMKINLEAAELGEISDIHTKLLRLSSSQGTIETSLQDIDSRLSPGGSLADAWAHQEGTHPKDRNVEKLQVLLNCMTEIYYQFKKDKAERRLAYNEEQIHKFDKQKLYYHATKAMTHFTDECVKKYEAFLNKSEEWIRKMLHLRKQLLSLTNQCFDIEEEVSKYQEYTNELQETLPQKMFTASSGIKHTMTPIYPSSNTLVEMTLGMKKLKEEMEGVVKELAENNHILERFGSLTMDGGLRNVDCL
As for `CC(C)Oc1cc(-c2ccc3nc(Nc4cc(CN5CCN(C(=O)OC(C)(C)C)CC5)ccn4)[nH]c3c2)ncn1` [Example 160.01, tert-butyl 4-{[2-({6-[6-(propan-2-yloxy)pyrimidin-4-yl]-1H-benzimidazol-2-yl}amino)pyridin-4-yl]methyl}piperazine-1-carboxylate], the IC50 (in general, the concentration that inhibits the measured activity by half) stood at 64 nM.

Turning to `CC(C)Nc1ncnc(-c2ccc3nc(Nc4cc(CN5CCN(C(=O)CC(F)(F)F)CC5)ccn4)[nH]c3c2)c1F` [Example 193.02, 3,3,3-trifluoro-1-(4-{[2-({6-[5-fluoro-6-(propan-2-ylamino)pyrimidin-4-yl]-1H-benzimidazol-2-yl}amino)pyridin-4-yl]methyl}piperazin-1-yl)propan-1-one], the IC50 was 34.6 nM. For `CC(C)Oc1cncnc1-c1ccc2nc(Nc3cc(C(C)N4CCN(C(=O)C5CCC5)CC4)ccn3)[nH]c2c1` (single isomer, unassigned) [Example 36.04, cyclobutyl(4-{(1R or 1S)-1-[2-({6-[5-(propan-2-yloxy)pyrimidin-4-yl]-1H-benzimidazol-2-yl}amino)pyridin-4-yl]ethyl}piperazin-1-yl)methanone], the IC50 came to 2.5 nM. Consider `CCc1cc(-c2ccc3nc(Nc4cc(CN5CCN(C(=O)C6CC6)CC5)ccn4)[nH]c3c2)ncn1` [Example 91.03, cyclopropyl{4-[(2-{[6-(6-ethylpyrimidin-4-yl)-1H-benzimidazol-2-yl]amino}pyridin-4-yl)methyl]piperazin-1-yl}methanone], for which the IC50 is 13 nM. In the case of `CC(c1ccnc(Nc2nc3ccc(-c4cnn(CC5CCC5)c4)cc3[nH]2)c1)N1CCN(C(=O)C2CC2)CC1` (single isomer, unassigned) [Example 59.01.03, (4-{(1R or 1S)-1-[2-({6-[1-(cyclobutylmethyl)-1H-pyrazol-4-yl]-1H-benzimidazol-2-yl}amino)pyridin-4-yl]ethyl}piperazin-1-yl)(cyclopropyl)methanone], the concentration for half-maximal inhibition (IC50) amounted to 2.59 nM.

`Cc1nc(Cl)cc(-c2ccc3nc(Nc4cc(CN5CCN(C(=O)OC(C)(C)C)CC5)ccn4)[nH]c3c2)n1` [Example 186.01, tert-butyl 4-[(2-{[6-(6-chloro-2-methylpyrimidin-4-yl)-1H-benzimidazol-2-yl]amino}pyridin-4-yl)methyl]piperazine-1-carboxylate]: the IC50 was determined as 59.1 nM. For `O=C(C1CC1)N1CCN(Cc2ccnc(Nc3nc4ccc(-c5ncnc(NCC6CC6)c5F)cc4[nH]3)c2)CC1` [Example 195.03, cyclopropyl[4-({2-[(6-{6-[(cyclopropylmethyl)amino]-5-fluoropyrimidin-4-yl}-1H-benzimidazol-2-yl)amino]pyridin-4-yl}methyl)piperazin-1-yl]methanone], the IC50 came to 34.1 nM.

On to `CN(C)c1nccnc1-c1ccc2nc(Nc3cc(CN4CCN(C(=O)CC(F)(F)F)CC4)ccn3)[nH]c2c1` [Example 196.02, 1-(4-{[2-({6-[3-(dimethylamino)pyrazin-2-yl]-1H-benzimidazol-2-yl}amino)pyridin-4-yl]methyl}piperazin-1-yl)-3,3,3-trifluoropropan-1-one], for which the IC50 came out at 1830 nM. Consider `CC(c1ccnc(Nc2nc3ccc(-c4cnn(CC5CCCC5)c4)cc3[nH]2)c1)N1CCN(C(=O)OC(C)(C)C)CC1` (single isomer, unassigned) [Example 71.01, tert-butyl 4-{(1R or 1S)-1-[2-({6-[1-(cyclopentylmethyl)-1H-pyrazol-4-yl]-1H-benzimidazol-2-yl}amino)pyridin-4-yl]ethyl}piperazine-1-carboxylate], for which the concentration for half-maximal inhibition (IC50) came out at 100 nM. For the compound `Cc1nccc(-c2ccc3nc(Nc4cc(CN5CCN(C(=O)CC6CC6)CC5)ccn4)[nH]c3c2)n1` [Example 24.01.04, 2-cyclopropyl-1-{4-[(2-{[6-(2-methylpyrimidin-4-yl)-1H-benzimidazol-2-yl]amino}pyridin-4-yl)methyl]piperazin-1-yl}ethanone], the IC50 was found to be 44.4 nM. As for `CCOc1c(-c2cnn(CC)c2)ccc2nc(Nc3cc(CN4CCN(C(=O)C5CC5)CC4)ccn3)[nH]c12` [Example 53.02, cyclopropyl{4-[(2-{[7-ethoxy-6-(1-ethyl-1H-pyrazol-4-yl)-1H-benzimidazol-2-yl]amino}pyridin-4-yl)methyl]piperazin-1-yl}methanone], the figure is 121 nM; as for `CCC(C)c1noc(-c2ccc3nc(Nc4cc(CN5CCN(C(=O)C6CC6)CC5)ccn4)[nH]c3c2)n1` (stereo not drawn) [Example 20.01, (4-{[2-({6-[3-(butan-2-yl)-1,2,4-oxadiazol-5-yl]-1H-benzimidazol-2-yl}amino)pyridin-4-yl]methyl}piperazin-1-yl)(cyclopropyl)methanone], 685 nM.

For the compound `CC(c1ccnc(Nc2nc3ccc(-c4cc(OCC(F)(F)F)ncn4)cc3[nH]2)c1)N1CCN(C(=O)C2(C(F)(F)F)CC2)CC1` (single isomer, unassigned) [Example 119.04, (4-{(1R or 1S)-1-[2-({6-[6-(2,2,2-trifluoroethoxy)pyrimidin-4-yl]-1H-benzimidazol-2-yl}amino)pyridin-4-yl]ethyl}piperazin-1-yl)[1-(trifluoromethyl)cyclopropyl]methanone], the half-inhibitory concentration (IC50) stood at 10.9 nM. On to `Cc1cc(CN2CCN(C(=O)CC(F)(F)F)CC2)cc(Nc2nc3ccc(-c4ccnc(C)n4)cc3[nH]2)n1` [Example 24.02.02, 3,3,3-trifluoro-1-{4-[(2-methyl-6-{[6-(2-methylpyrimidin-4-yl)-1H-benzimidazol-2-yl]amino}pyridin-4-yl)methyl]piperazin-1-yl}propan-1-one], for which the IC50 is 63.1 nM. As for `CC(C)c1cc(-c2ccc3nc(Nc4cc(CN5CCN(C(=O)CC(F)(F)F)CC5)ccn4)[nH]c3c2)ncn1` [Example 78.01, 3,3,3-trifluoro-1-(4-{[2-({6-[6-(propan-2-yl)pyrimidin-4-yl]-1H-benzimidazol-2-yl}amino)pyridin-4-yl]methyl}piperazin-1-yl)propan-1-one], the figure is 22 nM; as for `CC(c1ccnc(Nc2nc3ccc(-c4cc(N5CCOCC5)ncn4)cc3[nH]2)c1)N1CCN(C(=O)CC(F)(F)F)CC1` (single isomer, unassigned) [Example 118.03, 3,3,3-trifluoro-1-(4-{(1R or 1S)-1-[2-({6-[6-(morpholin-4-yl)pyrimidin-4-yl]-1H-benzimidazol-2-yl}amino)pyridin-4-yl]ethyl}piperazin-1-yl)propan-1-one], 1.4 nM; as for `CC(c1ccnc(Nc2nc3ccc(-c4cc(N5CC(F)(F)C5)ncn4)cc3[nH]2)c1)N1CCN(C(=O)CC(F)(F)F)CC1` (single isomer, unassigned) [Example 116.03, 1-(4-{(1R or 1S)-1-[2-({6-[6-(3,3-difluoroazetidin-1-yl)pyrimidin-4-yl]-1H-benzimidazol-2-yl}amino)pyridin-4-yl]ethyl}piperazin-1-yl)-3,3,3-trifluoropropan-1-one], 1.3 nM. Consider `COc1nc(Cl)cc(-c2ccc3nc(Nc4cc(CN5CCN(C(=O)OC(C)(C)C)CC5)ccn4)[nH]c3c2)n1` [Example 185.01, tert-butyl 4-[(2-{[6-(6-chloro-2-methoxypyrimidin-4-yl)-1H-benzimidazol-2-yl]amino}pyridin-4-yl)methyl]piperazine-1-carboxylate], for which the half-inhibitory concentration (IC50) came to 212 nM.
